Assay results as given in patent US10997871B2, “Contractile function measuring devices, systems, and methods of use thereof” (President and Fellows of Harvard College, priority 2014, dated 2021).

Legend:
cardiac tissue [1] = conditions: cited from earlier work
cardiac tissue [2] = assay: optogenetic muscle thin film contractile assay, frequency and dose-dependent response of drug-treated tissue; assay type: cell-based
Source text: The system 300 can incorporate the system 290. The system 300 can be substantially similar in structure and function to the systems discussed above, except for the distinctions noted herein. Therefore, like reference numbers represent like structures. The system 300 can include a lens 152 disposed above the platform 222 and a C-mount lens 302 (e.g., a 1× lens) disposed above the lens 152. The system 300 can further include a sensor 304 (e.g., a 100 frames per second complementary metal oxide semiconductor (CMOS) camera, or the like) disposed above the lens 302. The components 152, 302, 304 can be aligned along the vertical axis 164.
The system 300 can include mirror 306 (e.g., a mirror with an oblique angle), a filter 308 (e.g., an LP filter, such as 776LP), and a light source 310 aligned along an axis 312 substantially perpendicular to the vertical axis 164. Light imparted from the light source 310 can be directed by the mirror 306 at the tissue structures 224. The light can further be directed at the sensor 304. The system 300 provides a combination of an optogenetic tissue structure and an optical mapping system setup, including bright field microscopy for optogenetic tissue structures with the sensor 304 and red light illumination from the filter 308.
124 muscle thin films were tested on 15 chips or platforms using three harvests. The error bar indicates a standard error of mean and the shading indicates approximately 95% confidence limits. […] Thus, the independently paced optogenetic muscle thin films enable higher throughput assays to investigate the frequency-dependent response.
As an example, quinidine and verapamil (both frequency-dependent) were tested for frequency and dose-dependent response in cardiac tissue. In particular, optogenetic muscle thin films in a contractile assay were used to recapitulate frequency and dose dependent mechanical responses of drug-treated tissue. In particular, FIGS. 61 and 62 show the pacing frequency, change in spontaneous beating rate frequency, change in twitch stress, and change in maximum Dt/dt for quinidine and verapamil.

Compound: C=C[C@H]1C[N@@]2CC[C@H]1C[C@@H]2[C@@H](O)c1ccnc2ccc(OC)cc12 [quinidine]
- effect on myocardial contractility (cardiac tissue [1]; when given in therapeutic doses, general statement): does not directly affect myocardial contractility

Compound: COc1ccc(CCN(C)CCCC(C#N)(c2ccc(OC)c(OC)c2)C(C)C)cc1OC (centres unmarked) [verapamil]
- effect on calcium handling (cardiac tissue [1]; general statement explaining the inotropic result): directly affects calcium handling
- 1:1 coupling (cardiac tissue [2]; at a low frequency with relatively low concentration, optical pacing): low
- inotropic effect (twitch stress, contractility) (cardiac tissue [2]; comparison of verapamil with quinidine): stronger negative inotropic effect than quinidine
- spontaneous beating rate (cardiac tissue [2]; drug-treated cardiac tissue): increase
